Structures can show the parent of a compound that is named as a salt.
Columns and labels:
IL-4 production = assay: Test 1: inhibition of IL-4 production in human T-cell strain ATL-16T(-) stimulated with PMA (R&D Systems EIA); format: cell-based; settings: ATL-16T(-) 1×10^6 cells/0.5 ml/well, 20 nM PMA, 48 hours, read-out: Inhibition rate of IL-4 production; for inhibition at 10 µM: 10^-5 M; for inhibition at 1 µM: 10^-6 M; for inhibition at 0.1 µM: 10^-7 M; for inhibition at 0.01 µM: 10^-8 M
Protocol: Test 1: Test on the inhibition of IL-4 production
Into individual wells of a 48-well microplate, the human T-cell strain ATL-16T(-) was poured at a concentration of 1×10^6 cells/0.5 ml/well (n=3), followed by the addition of a stimulator (20 nM of PMA) and a medicament at the same time. The resulting mixture was incubated in 5% CO2 at 37° C. for 48 hours. After incubation, 100 μl of the supernatant were collected and subjected to measurement by a human IL-4 EIA kit (R&D SYSTEMS, INC.). The inhibition rate was calculated according to the following formula. [formula]

IL-5 production = assay: Test 3: inhibition of IL-5 production in human PBMC stimulated with ConA; format: cell-based; settings: 10^-6 M, 10 μg/ml ConA, 48 hours, read-out: Inhibition rate of IL-5 production
Protocol: Test 3: Test on the inhibition of IL-5 production
The peripheral blood was collected from a normal volunteer and peripheral blood mononuclear cells (PBMC) of the human peripheral blood were separated therefrom by the specific gravity centrifugation method. They were suspended in an AIM-V medium and their cell count was adjusted. To individual wells of a 96-well incubation plate, 1×10^6 cells/ml of PBMC were poured, followed by the addition of a stimulator (10 μg/ml of ConA) and a medicament. The resulting mixture was incubated in 5% CO2 at 37° C. for 48 hours. After incubation, 50 μl of the supernatant were collected and subjected to measurement by a human IL-5 EIA kit (BIO SOURCE, INC.). The inhibition rate was calculated according to the following formula. [formula]

SMILES	inhibition at 10 µM (IL-4 production) [%]	inhibition at 1 µM (IL-4 production) [%]	inhibition at 0.1 µM (IL-4 production) [%]	inhibition at 0.01 µM (IL-4 production) [%]	inhibition at 1 µM (IL-5 production) [%]
COc1cnc(/C=C/C(=O)c2ccccc2)cc1OC1CCCC1 [Ex. 2, 4-Cyclopentyloxy-5-methoxy-2-(3-oxo-3-phenyl-1-propenyl)pyridine]	113	103	93.5	82.8	93.4
COc1cnc(/C=C/C(=O)c2ccccc2)cc1OCc1ccccc1 [Ex. 3, 4-Benzyloxy-5-methoxy-2-(3-oxo-3-phenyl-1-propenyl)pyridine]	98.9	81.1	75.9	60	65.8
COCOc1cc(/C=C/C(=O)c2ccccc2)ncc1OC [Ex. 4, 5-Methoxy-4-methoxymethyloxy-2-(3-oxo-3-phenyl-1-propenyl)pyridine]	86.2	75.2	67.9	57.4	60.2
COCOc1cnc(/C=C/C(=O)c2ccccc2)cc1OCOC [Ex. 5, 4,5-Bis(methoxymethyloxy)-2-(3-oxo-3-phenyl-1-propenyl)pyridine]	104	90	74	50.9	89.3
COc1cc(/C=C/C(=O)c2ccccc2)ncc1OC(C)=O [Ex. 6, 5-Acetoxy-4-methoxy-2-(3-oxo-3-phenyl-1-propenyl)pyridine]	102	86.1	75.2	58.8	67
COc1cnc(/C=C/C(=O)c2ccccc2)cc1OC(C)=O [Ex. 7, 4-Acetoxy-5-methoxy-2-(3-oxo-3-phenyl-1-propenyl)pyridine]	91.8	79.8	76.4	63.9	94.2
CC(=O)Oc1cnc(/C=C/C(=O)c2ccccc2)cc1OC(C)=O [Ex. 8, 4,5-Diacetoxy-2-(3-oxo-3-phenyl-1-propenyl)pyridine]	94.3	88	76.2	60.2	75.3
CCCCCC(=O)/C=C/c1cc(OC2CCCC2)c(OC)cn1 [Ex. 9, 4-Cyclopentyloxy-5-methoxy-2-(3-oxo-1-octenyl)pyridine]	94.6	92.7	86.5	70.7	82.5
COc1cnc(/C=C/C(=O)C2CCCC2)cc1OC1CCCC1 [Ex. 10, 2-(3-Cyclopentyl-3-oxo-1-propenyl)-4-cyclopentyloxy-5-methoxypyridine]	93.6	83.5	83.2	47.8	62.9
CCCCCC(=O)/C=C/c1cc(OC(C)=O)c(OC(C)=O)cn1 [Ex. 11, 4,5-diacetoxy-2-(3-oxo-1-octenyl)pyridine]	94.1	87.2	79.6	78.9	77.3
CCOC(=O)CCCCCOc1cc(/C=C/C(=O)c2ccccc2)ncc1OC [Ex. 12, Ethyl 6-[5-methoxy-2-(3-oxo-3-phenyl-1-propenyl)-4-pyridyloxy]hexanoate]	78.6	61.6	52.9	43	72.4
CCCCCC(=O)/C=C/c1cc(OCCCC(=O)OCC)c(OC)cn1 [Ex. 13, Ethyl 4-[5-methoxy-2-(3-oxo-1-octenyl)-4-pyridyloxy]butanoate]	87.9	77	68.7	62.3	80.9
COC(=O)CCCOc1cc(/C=C/C(=O)c2ccccc2)ncc1OC [Ex. 16, Methyl 4-[5-methoxy-2-(3-oxo-3-phenyl-1-propenyl)-4-pyridyloxy]butanoate]	90.1	82.1	81.6	76.8	79.4
COC(=O)CCCCCOc1cnc(/C=C/C(=O)C2CCCC2)cc1OC [Ex. 17, Methyl 6-[4-methoxy-2-(3-cyclopentyl-3-oxo-1-propenyl)-5-pyridyloxy]hexanoate]	111	92.8	88.6	74.7	84.3
COC(=O)CCCOc1cnc(/C=C/C(=O)C2CCCC2)cc1OC [Ex. 18, Methyl 4-[4-methoxy-2-(3-cyclopentyl-3-oxo-1-propenyl)-5-pyridyloxy]butanoate]	88.2	78.3	67.8	34.8	96.9
COc1cc(/C=C/C(=O)c2ccccc2)ncc1O [Ex. 21, 5-hydroxy-4-methoxy-2-(3-oxo-3-phenyl-1-propenyl)pyridine]	97.3	90.3	80.1	72.5	67.3
CCCCCC(=O)/C=C/c1cc(O)c(O)cn1 [Ex. 22, 4,5-Dihydroxy-2-(3-oxo-1-octenyl)pyridine]	111	75.5	67.6	50	80.9
COc1cnc(/C=C/C(O)c2ccccc2)cc1OC (stereo not shown) [Ex. 23, 4,5-dimethoxy-2-(3-hydroxy-3-phenyl-1-propenyl)pyridine]	88	80.7	64.9	64.7	96.3
COc1cnc(/C=C/C(O)c2ccccc2)cc1O (stereo not shown) [Ex. 24, 4-Hydroxy-2-(3-hydroxy-3-phenyl-1-propenyl)-5-methoxypyridine]	92.2	79.5	69.5	56	80
CCCCCC(O)/C=C/c1cc(OCCCCCC(=O)OC)c(OC)cn1 (stereo not shown) [Ex. 30, Methyl 6-[2-(3-hydroxy-1-octenyl)-5-methoxy-4-pyridyloxy]hexanoate]	74	67	56.8	40.7	73.2
COC(=O)CCCCCOc1cnc(/C=C/C(O)C2CCCC2)cc1OC (stereo not shown) [Ex. 31, Methyl 6-[2-(3-cyclopentyl-3-hydroxy-1-propenyl)-4-methoxy5-pyridyloxy]hexanoate]	81.2	69.5	58	40.4	71.6
COc1cnc(/C=C/C(=O)c2ccccc2)cc1OCCCC(=O)O [Ex. 33, 4-[5-methoxy-2-(3-oxo-3-phenyl-1-propenyl)-4-pyridyloxy]butanoic acid]	107	93.9	90	86.1	72.1
CCCCCC(O)/C=C/c1cc(OCCCCCC(=O)O)c(OC)cn1 (stereo not shown) [Ex. 35, 6-[2-(3-Hydroxy-1-octenyl)-5-methoxy-4-pyridyloxy]hexanoic acid]	90.3	89.3	82.5	64.3	82.2
COc1cc(/C=C/C(O)C2CCCC2)ncc1OCCCCCC(=O)O (stereo not shown) [Ex. 36, 6-[2-(3-Cyclopentyl-3-hydroxy-1-propenyl)-4-methoxy-5-pyridyloxy]hexanoic acid hydrochloride]	85.1	78.9	68.6	37.6	86.5
COc1cc(/C=C/C(=O)C2CCCC2)ncc1OCCCCCC(=O)O [Ex. 38, 6-[2-(3-Cyclopentyl-3-oxo-1-propenyl)-4-methoxy-5-pyridyloxy]hexanoic acid hydrochloride]	76.3	68.9	59	42.4	88.7
COc1cnc(/C=C/C(=O)N2CCOCC2)cc1OC [Ex. 110, 4,5-Dimethoxy-2-(3-morpholino-3-oxo-1-propenyl)pyridine hydrochloride]	–	–	–	–	79.3
COc1cnc(/C=C/C(=O)N2CCCCC2)cc1OC1CCCC1 [Ex. 111, 4-Cyclopentyloxy-5-methoxy-2-(3-oxo-3-piperidino-1-propenyl)pyridine hydrochloride]	–	–	–	–	73.2
